Measurements reported in patent publication US4336257A, “Novel 2-pyridylbenzimidazole compounds” (Merck & Co., Inc., priority 1980, dated 1982).
Read-outs that look alike come from different tables or passages of the source.

How the values were obtained:
[1] = system: spontaneously hypertensive (SH) rat; experiment: antihypertensive activity in spontaneously hypertensive (SH) rat; assay type: in vivo; conditions: SH rat (footnote 1)
Protocol: (§1) The xanthine oxidase activity of representative compounds was determined using an in vitro test--the antihypertensive activity was determined by administration of said compounds to a spontaneously hypertensive (SH) or renal hypertensive (RH) rat. The X.O. inhibition is expressed as % inhibition of the enzyme at a present compound concentration of 2×10^-5 M.

xanthine oxidase [2] = biological target: T1, xanthine oxidase (Bos taurus, UniProt P80457); experiment: in vitro xanthine oxidase (X.O.) inhibition; assay type: biochemical
T1 sequence (P80457 whole entry): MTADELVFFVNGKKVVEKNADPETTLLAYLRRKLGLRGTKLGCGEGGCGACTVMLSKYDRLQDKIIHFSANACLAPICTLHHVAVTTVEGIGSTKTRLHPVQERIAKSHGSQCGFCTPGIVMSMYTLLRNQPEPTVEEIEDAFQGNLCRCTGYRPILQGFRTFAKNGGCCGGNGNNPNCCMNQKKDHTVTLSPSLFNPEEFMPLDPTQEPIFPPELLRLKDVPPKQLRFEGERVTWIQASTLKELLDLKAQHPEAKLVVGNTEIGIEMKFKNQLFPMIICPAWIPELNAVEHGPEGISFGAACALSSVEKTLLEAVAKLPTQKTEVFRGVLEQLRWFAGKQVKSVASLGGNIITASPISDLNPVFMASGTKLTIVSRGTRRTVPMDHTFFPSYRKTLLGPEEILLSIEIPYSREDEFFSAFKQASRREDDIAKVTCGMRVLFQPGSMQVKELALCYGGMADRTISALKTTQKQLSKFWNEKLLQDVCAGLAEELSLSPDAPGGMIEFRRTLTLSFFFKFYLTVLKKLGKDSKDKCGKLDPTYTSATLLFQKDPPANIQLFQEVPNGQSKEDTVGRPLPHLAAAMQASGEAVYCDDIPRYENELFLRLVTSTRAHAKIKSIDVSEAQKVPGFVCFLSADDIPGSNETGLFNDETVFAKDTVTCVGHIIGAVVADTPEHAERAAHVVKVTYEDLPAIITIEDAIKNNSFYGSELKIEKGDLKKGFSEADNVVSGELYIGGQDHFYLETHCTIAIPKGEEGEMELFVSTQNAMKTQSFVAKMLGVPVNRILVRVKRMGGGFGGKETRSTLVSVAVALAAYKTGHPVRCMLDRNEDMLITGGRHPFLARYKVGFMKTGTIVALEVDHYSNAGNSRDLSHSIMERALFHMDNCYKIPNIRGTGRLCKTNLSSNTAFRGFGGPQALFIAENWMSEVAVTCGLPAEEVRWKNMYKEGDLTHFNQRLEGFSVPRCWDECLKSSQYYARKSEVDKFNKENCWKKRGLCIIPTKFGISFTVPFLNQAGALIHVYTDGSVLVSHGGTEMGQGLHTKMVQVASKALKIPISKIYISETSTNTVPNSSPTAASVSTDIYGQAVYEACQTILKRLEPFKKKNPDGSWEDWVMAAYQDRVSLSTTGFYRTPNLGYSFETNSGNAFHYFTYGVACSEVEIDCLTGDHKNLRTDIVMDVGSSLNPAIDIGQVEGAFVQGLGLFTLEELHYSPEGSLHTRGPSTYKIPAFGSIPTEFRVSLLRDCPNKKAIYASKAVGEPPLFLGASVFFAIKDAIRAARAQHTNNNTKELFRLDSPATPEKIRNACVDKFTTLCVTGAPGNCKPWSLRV
Protocol: as §1, with “M. | .circle.* using in vitro test as described in J. Med. Chem. 20,” for “M.”

[3] = system: renal hypertensive (RH) rat; experiment: antihypertensive activity in renal hypertensive (RH) rat; assay type: in vivo; conditions: RH rat (footnote 2)
Protocol: as §1

[4] = system: spontaneously hypertensive (SH) or renal hypertensive (RH) rat; experiment: antihypertensive activity in spontaneously hypertensive (SH) or renal hypertensive (RH) rat, model not specified; assay type: in vivo; conditions: model not marked
Protocol: as §1

xanthine oxidase [5] = biological target: T1, xanthine oxidase; experiment: in vitro xanthine oxidase (X.O.) inhibition; assay type: biochemical; conditions: Table 2; amount 1.5 × 10^-5 m; read-out: X.O.I.
[6] = Table 1, compound concentration 2×10^-5 M, read-out: % X.O. Inhibition
[7] = Table 2, amount 2 × 10^-5 M, read-out: X.O.I.

| SMILES | A.H. Activity [1] | inhibition at 20 µM (xanthine oxidase [2]; [6]) | other results |
| --- | --- | --- | --- |
| c1cnc2[nH]c(-c3ccncc3)nc2c1 | yes | 8% |  |
| Clc1ccc2[nH]c(-c3ccncc3)nc2c1 [drawing 6] |  | 11% | A.H. Activity [3]: yes |
| Clc1ccc2[nH]c(-c3ccncc3)nc2c1 [drawing 13] |  |  | inhibition at 20 µM (xanthine oxidase [2]; [7]): 11% |
| c1cncc(-c2nc3cnccc3[nH]2)c1 |  | 23% | A.H. Activity [4]: no |
| Clc1ccc2[nH]c(-c3cccnc3)nc2c1 |  |  | inhibition at 20 µM (xanthine oxidase [2]; [7]): 0% |
| Cc1cnc(-c2cccnc2)[nH]1 | yes | 0% |  |
| Clc1cc2nc(-c3ccncc3)[nH]c2cc1Cl [drawing 14] |  |  | inhibition at 15 µM (xanthine oxidase [5]): 50% |
| c1cncc(-c2nc3cccnc3[nH]2)c1 | yes | 5% |  |
| Clc1cc2nc(-c3ccncc3)[nH]c2cc1Cl [drawing 7] |  | 56% | A.H. Activity [4]: no |
| c1cc(-c2nc3cnccc3[nH]2)ccn1 | yes | 62% |  |
| Cc1cnc(-c2ccncc2)[nH]1 | yes | 4% |  |
